Assay results as given in patent US7999011B2, “Method for cardioprotection and neuroprotection by intravenous administration of halogenated volatile anesthetics” (Baxter International Inc., priority 2002, dated 2011).
“Also recorded” adds a separate entry of the source.

How the values were obtained:
Type in all cases: in vivo, rabbit
[1] = system: myocardial ischemia-reperfusion injury; test: Myocardial infarct size following ischemia and reperfusion (30 min LAD occlusion, 3 h reperfusion); details: for infarct size plotted as a function of area at risk, versus control regression line: FIGS. 4A, 4B, 5A, 5B; for cardioprotection (protection against myocardial ischemia-reperfusion injury): i.v. emulsion prior to coronary artery occlusion; for IF/AAR: infarct size as percentage of area at risk, i.v. emulsion 10 ml/h 30 min, stopped 30 min before occlusion; for IF WT: infarct weight
Protocol: These experiments were designed to characterize the effects of different HVAs (enflurane, isoflurane, sevoflurane, and desflurane) administered intravenously in an emulsion on myocardial infarct size following ischemia and reperfusion in rabbits.
(§1) Male New Zealand white rabbits weighing between 2.5 and 3.0 kg were anesthetized with intravenous sodium pentobarbital (30 mg/kg). Additional doses of pentobarbital were titrated as required to assure that pedal and palpebral reflexes were absent throughout the experiment. A tracheotomy was performed through a ventral midline incision, and the trachea was cannulated. The rabbits were ventilated with positive pressure using an air-oxygen mixture (FiO2=0.33). Arterial blood gas tensions and acid-base status were maintained within a normal physiological range (pH 7.35-7.45, PaCO2 25-40 mmHg, and PaO2 90-150 mmHg) by adjusting the respiratory rate or tidal volume. Body temperature was maintained with a heating blanket. Heparin-filled catheters were inserted into the right carotid artery and the left jugular vein for measurement of arterial blood pressure and fluid or drug administration, respectively. Maintenance fluids consisted of 0.9% saline (15 ml/kg/h) that were continued for the duration of the experiment.
(§2) A left thoracotomy was performed at the fourth intercostal space, and the heart was suspended in a pericardial cradle. A prominent branch of the left anterior descending coronary artery (LAD) was selected, and a silk ligature was placed around this artery approximately halfway between the base and apex for the production of coronary artery occlusion and reperfusion in myocardial infarct size experiments. Each rabbit was anticoagulated with 500 U of heparin immediately before LAD occlusion. Coronary artery occlusion was verified by the presence of epicardial cyanosis and regional dyskinesia in the ischemic zone, and reperfusion was confirmed by observing an epicardial hyperemic response. Hemodynamics were continuously recorded on a polygraph throughout experimentation. After the surgical preparation, 30 min of stabilization were allowed.
The experimental design for the experiments is illustrated in FIG. 1. Rabbits were randomly assigned to one of six experimental groups: a control group (0.9% saline infusion), a vehicle group (drug lipid vehicle), or one of four anesthetic groups (emulsified desflurane, isoflurane, enflurane, or sevoflurane). The vials of anesthetics were stored at 4° C. as prepared in Example 1. After opening, the vial was left in a water bath at 37° C. for 2 h. Anesthetics were directly poured into the syringe without using negative pressure suction.
(§3) Baseline measurements of systemic hemodynamics, arterial blood gas tensions, and blood concentrations of anesthetic agent were performed 30 min after instrumentation was completed. Rabbits received 0.9% saline, drug lipid vehicle (10 ml/h), or intravenous volatile anesthetic (10 ml/h) for 30 min. Infusions were discontinued 30 min prior to coronary occlusion (memory period). Blood concentrations of anesthetic agents were performed at baseline, at the end of anesthetic infusion, and at the end of the memory period just before coronary occlusion). HVA concentrations in blood were determined by gas chromatographic (GC) analysis. All rabbits underwent a 30 min LAD occlusion followed by 3 h reperfusion.
At the end of each experiment, the LAD was reoccluded and 3 ml of Patent blue dye was injected intravenously. The left ventricular area at risk for infarction was separated from surrounding normal areas (stained blue), and the two regions were incubated at 37° C. for 20 to 30 min in 1% 2,3,5-triphenyltetrazolium chloride in 0.1 M phosphate buffer adjusted to pH 7.4. After overnight storage in 10% formaldehyde, infarcted and noninfarcted myocardium within the area at risk were carefully separated and weighed. Infarct size was expressed as a percentage of the area at risk. […]

[2] = Systemic hemodynamics during infarct experiment
Protocol: as §1, with “Arterial blood gas tensions and acid-base status were maintained within a normal physiological range (pH 7.35-7.45, PaCO2 25-40 mmHg, and PaO2 90-150 mmHg) by adjusting the respiratory rate or tidal volume.” left out
as §2, §3
Statistical analysis of data within and between groups was performed with analysis of variance (ANOVA) for repeated measures followed by Student-Newman-Keuls test. Changes between groups were considered statistically significant when the p value was less than 0.05. All data are expressed as mean±SEM.

[3] = Blood concentration of anesthetics by GC and conversion to MAC-equivalents
Protocol: as §3
Blood concentrations as measured by GC were converted to their MAC-equivalent values by calculations described below. Initially “n”, or the number of moles of HVA in 1 L of alveolar gas during exposure to 1.0 MAC of the HVA was calculated. The ideal gas law n=PV/RT is used to calculate the number of moles of HVA present at 1 MAC in the alveolar gas where: V=1 L, T=273+37=310° (K); and R=0.0821 (universal gas constant). P or pressure was determined taking into account the vapor pressure of water at 37° C. which is 47.1 torr, and the volume percent of the HVA. Volume percentages of HVAs (MAC values) were obtained from literature values determined in rabbits (Scheller et al. Can. J. Anaesth. 1988, 35: 133-136; Drummond, J C Anesthesiology 1985; 62: 336-8, and Doorley et al. Anesthesiology 1988; 69, 89-91), and are presented in Table 8.
The number of moles of the HVA in 1 L at 37° C. at 1 MAC in rabbits was then used to determine the concentration of the HVA present in blood by using known blood/gas partition values (also known as λ). Blood gas partition values for the HVAs used in the study are show in Table 8. The value for “x” (or the equivalent blood concentration of the HVA at 1 MAC at 37° C. in rabbit) is then determined by the equation: x=λn
To express a measured blood concentration of an HVA as a MAC-equivalent value, the measured blood concentration is divided by x. The MAC equivalent values shown in Table 8 were calculated according to the above from the blood concentrations observed (see Table 7).

[4] = i.v. emulsion 10 ml/h for 30 min, Baseline
[5] = Infusion (end of 30 min, 10 ml/h i.v. infusion)
[6] = Memory (30 min after infusion, just before coronary occlusion)
[7] = measured blood concentration divided by x

SMILES	infarct size plotted as a function of area at risk, versus control regression line [1]	IF/AAR [1]	IF WT [1]	MAP ([2]; Baseline)	HR ([2]; Infusion)	MAP ([2]; Infusion)	RPP ([2]; Infusion)	HR ([2]; Ischemia 30 min)	MAP ([2]; Ischemia 30 min)	RPP ([2]; Ischemia 30 min)	HR ([2]; Memory)	MAP ([2]; Memory)	RPP ([2]; Memory)	HR ([2]; Reperfusion 1 h)	MAP ([2]; Reperfusion 1 h)	RPP ([2]; Reperfusion 1 h)	HR ([2]; Reperfusion 2 h)	MAP ([2]; Reperfusion 2 h)	RPP ([2]; Reperfusion 2 h)	HR ([2]; Reperfusion 3 h)	other results
FC(F)OC(F)C(F)(F)F (stereo not shown) [DES, desflurane]	infarct size comparable to controls	38.5 ± 6.7%	0.50 ± 0.15 g	71 ± 8 mmHg	253 ± 9 bpm	67 ± 9 mmHg	20.4 ± 2.8 bpm × mmHg × 10^3	228 ± 7 bpm	53 ± 8 mmHg	14.5 ± 2 bpm × mmHg × 10^3	231 ± 9 bpm	58 ± 10 mmHg	16.3 ± 3 bpm × mmHg × 10^3	201 ± 14 bpm	54 ± 7 mmHg	12.4 ± 0.4 bpm × mmHg × 10^3	216 ± 6 bpm	58 ± 8 mmHg	15 ± 2.1 bpm × mmHg × 10^3	219 ± 7 bpm	cardioprotection (protection against myocardial ischemia-reperfusion injury) [1]: unable to confer cardioprotection; also recorded: did not confer cardioprotection; MAP ([2]; Memory, listed as desflurane): decrease in mean arterial pressure; RPP ([2]; Reperfusion 1 h, listed as desflurane): decreased; MAP ([2]; Reperfusion 3 h): 54 ± 5 mmHg; RPP ([2]; Reperfusion 3 h): 14.2 ± 1.4 bpm × mmHg × 10^3; HR [2, 4]: 261 ± 11 bpm; Blood Concentration ([3]; Baseline): 0 µM; Blood Concentration [3, 5]: 180 ± 30 µM; Blood Concentration [3, 6]: 30 ± 20 µM; Observed Blood Concentration following 30 min, 10 mL/h Infusion ([3]; i.v. emulsion): 0.18 mM; Observed Blood Concentration following 30 min, 10 mL/h Infusion [3, 7]: 0.13 MAC-Equivalents
FC(F)OC(F)(F)C(F)Cl (stereo not shown) [ENF, enflurane]	infarcts were smaller than in the control group	20.0 ± 2.8 %	0.21 ± 0.02 g	78 ± 4 mmHg	240 ± 11 bpm	68 ± 3 mmHg	18.9 ± 1.5 bpm × mmHg × 10^3	213 ± 9 bpm	59 ± 6 mmHg	14.5 ± 1.7 bpm × mmHg × 10^3	231 ± 11 bpm	70 ± 3 mmHg	18.9 ± 1.4 bpm × mmHg × 10^3	216 ± 7 bpm	65 ± 6 mmHg	15.8 ± 1.5 bpm × mmHg × 10^3	214 ± 10 bpm	68 ± 7 mmHg	16.5 ± 1.6 bpm × mmHg × 10^3	210 ± 7 bpm	cardioprotection (protection against myocardial ischemia-reperfusion injury) ([1]; listed as Enflurane): provided protection against myocardial ischemia-reperfusion injury; cardioprotection (protection against myocardial ischemia-reperfusion injury) ([1]; listed as enflurane): adequate protection against myocardial ischemia-reperfusion injury; also recorded: significant reduction in the myocardial infarct size; RPP ([2]; Baseline): 22 ± 1.9 bpm × mmHg × 10^3; MAP ([2]; Reperfusion 3 h): 75 ± 5 mmHg; RPP ([2]; Reperfusion 3 h): 17.6 ± 1.3 bpm × mmHg × 10^3; HR [2, 4]: 248 ± 10 bpm; Blood Concentration ([3]; Baseline): 0 µM; Blood Concentration [3, 5]: 310 ± 30 µM; Blood Concentration [3, 6]: 60 ± 10 µM; Observed Blood Concentration following 30 min, 10 mL/h Infusion ([3]; i.v. emulsion): 0.31 mM; Observed Blood Concentration following 30 min, 10 mL/h Infusion [3, 7]: 0.15 MAC-Equivalents
FC(F)OC(Cl)C(F)(F)F (stereo not shown) [ISO, isoflurane]	infarcts were smaller than in the control group	18.1 ± 2.6 %	0.18 ± 0.03 g	64 ± 5 mmHg	227 ± 14 bpm	57 ± 6 mmHg	16.2 ± 2.2 bpm × mmHg × 10^3	220 ± 11 bpm	54 ± 5 mmHg	14.3 ± 1.6 bpm × mmHg × 10^3	229 ± 10 bpm	62 ± 6 mmHg	16.7 ± 2 bpm × mmHg × 10^3	212 ± 4 bpm	52 ± 3 mmHg	13.3 ± 0.8 bpm × mmHg × 10^3	201 ± 6 bpm	54 ± 3 mmHg	13.2 ± 1 bpm × mmHg × 10^3	195 ± 7 bpm	cardioprotection (protection against myocardial ischemia-reperfusion injury) [1]: provided protection against myocardial ischemia-reperfusion injury; also recorded: adequate protection against myocardial ischemia-reperfusion injury; also recorded: significant reduction in the myocardial infarct size; RPP ([2]; Baseline): 17.7 ± 2 bpm × mmHg × 10^3; MAP ([2]; Infusion, listed as isoflurane): decreased; RPP ([2]; Reperfusion 1 h, listed as isoflurane): decreased; MAP ([2]; Reperfusion 3 h): 58 ± 3 mmHg; RPP ([2]; Reperfusion 3 h): 13.5 ± 1 bpm × mmHg × 10^3; HR [2, 4]: 240 ± 9 bpm; Blood Concentration ([3]; Baseline): 0 µM; Blood Concentration [3, 5]: 180 ± 60 µM; Blood Concentration [3, 6]: 40 ± 20 µM; Observed Blood Concentration following 30 min, 10 mL/h Infusion ([3]; i.v. emulsion): 0.18 mM; Observed Blood Concentration following 30 min, 10 mL/h Infusion [3, 7]: 0.17 MAC-Equivalents
